According to US10004222B2, “Small molecule ice recrystallization inhibitors and methods of use thereof” (THE UNIVERSITY OF OTTAWA, priority 2012, dated 2018):

Tests used:
[1] = splat cooling ice recrystallization inhibition (IRI) assay; settings: for decrease in grain size: mean grain size vs PBS alone, 30 min at −6.4° C., FIG. 28
Experimental: In this assay, the area of ice crystals are measured after a 30 minute annealing time at −6.4° C. and compared to a positive control for ice recrystallization resulting in a quantitative measurement of the mean ice grain size. For a positive control, a phosphate buffered saline (PBS) solution was utilized. All samples were normalized to the PBS positive control. The ice recrystallization inhibition activity of the carbohydrate-based non-ionic surfactants n-octyl-β-D-glucopyranoside (compound 3) and n-octyl-β-D-galactopyranoside (compound 4) is shown in FIG. 1.
In this assay, the area of ice crystals are measured after a 30 minute annealing time at −6.4° C. and compared to a positive control for ice recrystallization resulting in a quantitative measurement of the mean ice grain size. For a positive control, a PBS solution was utilized. All samples were normalized to the PBS positive control.
N-aryl-D-gluconamides (3a), (2a), (4a), and (1b) are a class of low molecular weight carbohydrate-based compounds. The ice recrystallization inhibition activity of (3a), (2a), (4a), and (1b) was assessed using a “splat cooling” assay. In this assay, the area of ice crystals are measured after a 30 minutes annealing time at −6.4° C. and compared to a positive control for ice recrystallization resulting in a quantitative measurement of the mean ice grain size. For a positive control, PBS was utilized. All samples were normalized to the PBS positive control.

HepG2 cells = experiment: human liver cell viability, MTT assay; type: cell-based; settings: at the concentration that yielded the highest functionality; overnight at 37° C.
Experimental: In the assay, HepG2 cells (human hepatocellular carcinoma cells) were harvested and incubated at 37° C. overnight in a 96-well plate to a concentration of 20,000 cells per well using Minimum Essential Medium (MEM) as media. The following day (or once cells were confluent) the media was removed and cells were incubated at 37° C. overnight with MEM supplemented with desired concentration of PMP-Glc and NOGlc (100 μL of solution added). The following day the plates were centrifuged (700 RPM for 3 minutes) and the solutions were removed. 200 μL of MEM was added to each well, followed by 50 μL of 2.5 mg/mL MTT solution in Hank's Balanced Salt Solution (HBSS) to a final concentration of 0.5 mg/mL MTT per well. Then the plates were incubated for 3 hours at 37° C. After incubation, the plates were centrifuged (700 RPM for 3 minutes) and 200 μL of a 10% TritonX/0.1 N HCl in isopropanol solution was added to each well. The plates were incubated in the dark for 1 hour, then shaken and the absorbance at […] of each well was read. % viability at 37° C. of PMP-Glc at a concentration 11 mM, 22 mM, 44 mM, 110 mM and 220 mM PMP-Glc was measured, and the results are shown in FIG. 12. % viability at 37° C. of NOGlc at a concentration of 0.1 mM, 0.2 mM, 0.5 mM, 1 mM, 2 mM and 5 mM was measured. Also, % viability at 37° C. of PMP-Glc, pFPh-Glc and pBrPh-Glc at a concentration of 11 mM, 22 mM, 44 mM, 55 mM, 110 mM and 220 mM was measured under the same conditions for the MTT Assay described above.
Human liver cell viability in compound (3a), (4a), […], and (1b) was assessed using a 3-(4,5-dimethylthiazol-2-yl)-2,5-diphenyltetrazolium bromide (MTT) Assay. In the assay, HepG2 cells (human hepatocellular carcinoma cells) were harvested and incubated overnight at 37° C. in a 96-well plate to a concentration of 20,000 cells per well using Minimum Essential Medium (MEM) as media. The following day, the media was removed and cells were incubated at 37° C. overnight with 100 μL MEM supplemented with different concentrations of (3a), (2a), (4a), and (1b). The following day, the plates were centrifuged at 1000 rpm for 5 minutes and solutions removed by aspiration. 200 μL of MEM was added to each well, followed by 50 μL of 2.5 mg/mL MTT (dissolved in HBSS). The plates were then incubated at 37° C. for 4 hours. After incubation, the plates were centrifuged at 1000 rpm for 5 minutes and solution was aspirated. […] The plates were incubated at ambient temperature for 3 hours before being shaken and the absorbance at 570 nm of each well was read. % viability at 37° C. of (3a) at 11 mM, 22 mM, 44 mM, 55 mM and 110 mM was measured and the results are shown in FIG. 37. […] Nonetheless, the cytotoxicity of DMSO itself was not determined.

[2] = system: CD34+ cells (hematopoietic stem cells); experiment: colony forming unit (CFU) assay after cryopreservation of umbilical cord blood; type: cell-based, human; settings: 27.5 mM IRI, 10% DMSO; post-thaw, 14 days in Methocult
Tf1-α cells = experiment: cryopreservation of Tf1-α cells, viability/apoptosis by flow cytometry (7-AAD, Annexin V); type: cell-based; settings: 55 mM aryl-aldonamide, post-thaw
Experimental: Tf1-α cells were cultured to a final concentration of 2-3×10^6 cells/mL. Three million cells were transferred into cryovials and media were removed by aspiration after centrifugation at 1000 rpm for five minutes. 100 μL of RPMI media (10% FBS) supplemented with the cryopreservative of interest was added to the cryovial and vortexed. The cryovials were cooled at a rate of −1° C./min for 24 hours to −80° C. before being transferred to a liquid nitrogen dewar for storage until analysis.
Cryovials were thawed under fast thaw conditions (submerged in 37° C. water bath). The cells were then diluted to a concentration of 3×10^6 cells/mL with 1× Annexin V Binding Buffer and a cell count was obtained by hemacytometer (to obtain cell recovery). A 400 μL aliquot was transferred to a flow cytommetry tube. 10 μL of each Annexin V FITC (for apoptosis) and 7-AAD (for viability) dyes were added, the tube was vortexed and allowed to incubate in the dark for 15 minutes. The solution was diluted to 1 mL with 1× Annexin V Binding Buffer, vortexed and analyzed by flow cytommetry. […] With 2% DMSO, cell viability reached about 45%, and with 10% DMSO, cell viability reached around 78%.

SMILES	ice recrystallization inhibition activity ([1]; concentration not given)	decrease in grain size [1]	cytotoxicity (HepG2 cells)	BFU-E [2]	CFU-M [2]	Apoptosis (%) (Tf1-α cells; 0% DMSO)	Cell Viability (%) (Tf1-α cells; 0% DMSO)	Apoptosis (%) (Tf1-α cells; 2% DMSO)	Cell Viability (%) (Tf1-α cells; 2% DMSO)	Apoptosis (%) (Tf1-α cells; 10% DMSO)	Cell Viability (%) (Tf1-α cells; 10% DMSO)
O=C(NCc1c(F)cccc1F)[C@H](O)[C@@H](O)[C@H](O)[C@H](O)CO [(1b), N-(2,6-difluorobenzyl)-D-gluconamide]	higher IRI activity than compound (2b)	about 85%	minimally cytotoxic relative to DMSO alone	28.5	2.0	–	–	–	–	–	–
O=C(Nc1ccccc1F)[C@H](O)[C@@H](O)[C@H](O)[C@H](O)CO [(2a), N-(2-fluorophenyl)-D-gluconamide]	–	~95%	minimally cytotoxic relative to DMSO alone	–	–	0	1.27	1.5	81.28	3.37	92.83
COc1ccc(NC(=O)[C@H](O)[C@@H](O)[C@H](O)[C@H](O)CO)cc1 [(3a), N-(4-methoxyphenyl)-D-gluconamide]	–	~95%	minimally cytotoxic relative to DMSO alone	35.0	3.5	0	0.16	1.38	74.33	2.73	95.33
O=C(Nc1ccc(Cl)cc1)[C@H](O)[C@@H](O)[C@H](O)[C@H](O)CO [(4a), N-(4-chlorophenyl)-D-gluconamide]	–	~60%	minimally cytotoxic relative to DMSO alone	–	–	–	–	–	–	–	–
